The record followed here is publication PMC10856407, “Polymer Nanoparticles with 2-HP-β-Cyclodextrin for Enhanced Retention of Uptake into HCE-T Cells” (Molecules, 2024).

The test system of assay [1] is HCE-T cells. Briefly: Endocytic transport mechanism in nanoparticle uptake (endocytosis inhibitors, flow cytometry). Format: cell-based, human. The settings on record: EIPA 100 μM, Chlorpromazine 30 μM, Nystain 30 μM, p < 0.01. On the procedure:
The main nanoparticle entry processes involve the clathrin structure, caveolin/lipid raft structure, and macropinocytosis. The experiment was conducted by separately adding different endocytosis transport inhibitors to examine the degree of action during nanoparticle uptake. The clathrin structural inhibitor Chlorpromazine (30 μM), the caveolin/lipid raft structure inhibitor Nystain (30 μM), and the macropinocytosis inhibitor derivative amiloride (EIPA, 100 μM) were added seperately. […] Serum-free cultures of varying endocytotic transport inhibitors were inspected using the method described above (Study of Active Transport Mechanism in Nanoparticle Uptake by HCE-T Cells).

Assay [2] deals with HCE-T cells. The following applies: sodium azide 1 mg·mL^−1, 1 h pre-incubation, 4 h uptake, NPs 20 μg·mL^−1, p < 0.01.
Procedure: HCE-T cells were seeded at a density of 1 × 10^5 cells·well^−1 in a six-well plate, and the culture medium was discarded when the cell density reached 80%. […] Then, fluorescently labeled nanoparticles were added for a final concentration of 20 μg·mL^−1. After continuing the uptake experiment for 4 h, the fluorescently labeled nanoparticle solution was discarded, washed three times with PBS, and digested using trypsin. The cells were blown out with serum cultures, collected, and centrifuged at 1000 rpm. The supernatant was aspirated to remove the fluorescent material adsorbed on the cell surface. Finally, 0.3 mL of the cells suspended in PBS were transferred into flow tubes and assayed using flow cytometry (BD FACSCanto II, Becton, Dickinson and Company, New York, NY, USA). The fluorescence intensity was quantified by collecting 10,000 cells, and X-means were used for comparing the differences in cell uptake between the groups.

Consider `CCN(c1nc(N)c(C(=O)N=C(N)N)nc1Cl)C(C)C` [EIPA, 5-(N-ethyl-N-isopropyl) amiloride], for which the “inhibition of HCE-T cell uptake of (2-HP-β-CD)/PLGA NPs” value in assay [1] worked out at 53.3%.

Consider `[N-]=[N+]=[N-].[Na+]` [sodium azide], for which the “reduction of uptake of (2-HP-β-CD)/PLGA NPs” value in assay [2] worked out at 60.0%.

With Nystain, the “inhibition of HCE-T cell uptake of (2-HP-β-CD)/PLGA NPs” value in assay [1] is given as 38.3%.

Regarding `CN(C)CCCN1c2ccccc2Sc2ccc(Cl)cc21` [Chlorpromazine], in assay [1] (Homo sapiens, read-out: inhibition of HCE-T cell uptake of (2-HP-β-CD)/PLGA NPs), the inhibition at 30 µM stood at 46.4%.
